Assay results taken from publication PMC9823097, “Dysregulation of PRMT5 in chronic lymphocytic leukemia promotes progression with high risk of Richter’s transformation” (Nature Communications, 2023).

How the values were obtained:
HG3 CLL cell line = assay: Global symmetric dimethyl arginine (SDMA) western blot, HG3; type: cell-based; settings: HG3, 72 h treatment
Source text: Proteins extracted from whole-cell lysates were resolved by SDS-PAGE and transferred on nitrocellulose membrane as previously described. CpG685 oligonucleotide was obtained from the OSU Cytogenetics Core Lab. Antibodies used for immunoblots included anti-human PRMT5 (Abcam #ab109451), GAPDH (Millipore Sigma #MAB374), SDMA (Cell Signaling Technology #13222), c-Myc (Cell Signaling Technology #5605S), and β-Actin (Cell Signaling Technology #4967S). Cas9-mediated doxycycline-inducible knockout of PRMT5 utilized a targeted sgRNA (guide sequence: […], PAM: GGG).

HG3 cells = assay: Cell growth curves over 12 days, HG3; type: cell-based
Protocol: Live cells/mL were counted on days 3, 6, 10, and 12. […] The split factor was calculated at indicated time points by dividing the counted cells/mL by 3E5. Cell growth was extrapolated over time by multiplying the subsequent cell count by the previous split factor. Cell growth is plotted as fold change relative to DMSO-treated cells.

CON=c1nc[nH]c2c1ccn2[C@@H]1O[C@H]([C@H](O)c2ccc(Cl)c(Cl)c2)[C@@H](O)[C@H]1O.Cl [PRT382, (2 R,3 S,4 R,5 R)-2-[(R)-(3,4-dichlorophenyl)-hydroxy-methyl]-5-[(4Z)-4-methoxyimino-1H-pyrrolo[2,3-d]pyrimidin-7-yl]tetrahydrofuran-3,4-diol hydrochloride]
lowest dose with decrease in global SDMA residues (HG3 CLL cell line): 100 nM | anti-proliferative potency compared to JNJ-64619178, LLY-283, and PF-06855800 (HG3 cells; HG3): similar-to-reduced | Rep 1 Live Cells [Fold Change] (HG3 cells; HG3, 1 nM, day 0): 1 Fold Change | Rep 2 Live Cells [Fold Change] (HG3 cells; HG3, 1 nM, day 0): 1 Fold Change | Rep 3 Live Cells [Fold Change] (HG3 cells; HG3, 1 nM, day 0): 1 Fold Change | Rep 1 Live Cells [Fold Change] (HG3 cells; HG3, 1 nM, day 3): 5.95 Fold Change | Rep 2 Live Cells [Fold Change] (HG3 cells; HG3, 1 nM, day 3): 7.45 Fold Change | Rep 3 Live Cells [Fold Change] (HG3 cells; HG3, 1 nM, day 3): 5.95 Fold Change | Rep 1 Live Cells [Fold Change] (HG3 cells; HG3, 1 nM, day 6): 46.5092 Fold Change | Rep 2 Live Cells [Fold Change] (HG3 cells; HG3, 1 nM, day 6): 44.5758 Fold Change | Rep 3 Live Cells [Fold Change] (HG3 cells; HG3, 1 nM, day 6): 27.1717 Fold Change | Rep 1 Live Cells [Fold Change] (HG3 cells; HG3, 1 nM, day 10): 425.559 Fold Change | Rep 2 Live Cells [Fold Change] (HG3 cells; HG3, 1 nM, day 10): 463.589 Fold Change | Rep 3 Live Cells [Fold Change] (HG3 cells; HG3, 1 nM, day 10): 237.752 Fold Change | Rep 1 Live Cells [Fold Change] (HG3 cells; HG3, 1 nM, day 12): 1418.53 Fold Change | Rep 2 Live Cells [Fold Change] (HG3 cells; HG3, 1 nM, day 12): 1486.57 Fold Change | Rep 3 Live Cells [Fold Change] (HG3 cells; HG3, 1 nM, day 12): 1077.81 Fold Change | Rep 1 Live Cells [Fold Change] (HG3 cells; HG3, 10 nM, day 0): 1 Fold Change | Rep 2 Live Cells [Fold Change] (HG3 cells; HG3, 10 nM, day 0): 1 Fold Change | Rep 3 Live Cells [Fold Change] (HG3 cells; HG3, 10 nM, day 0): 1 Fold Change | Rep 1 Live Cells [Fold Change] (HG3 cells; HG3, 10 nM, day 3): 6.983 Fold Change | Rep 2 Live Cells [Fold Change] (HG3 cells; HG3, 10 nM, day 3): 6.833 Fold Change | Rep 3 Live Cells [Fold Change] (HG3 cells; HG3, 10 nM, day 3): 6.567 Fold Change | Rep 1 Live Cells [Fold Change] (HG3 cells; HG3, 10 nM, day 6): 48.6506 Fold Change | Rep 2 Live Cells [Fold Change] (HG3 cells; HG3, 10 nM, day 6): 58.5389 Fold Change | Rep 3 Live Cells [Fold Change] (HG3 cells; HG3, 10 nM, day 6): 42.7928 Fold Change | Rep 1 Live Cells [Fold Change] (HG3 cells; HG3, 10 nM, day 10): 471.91 Fold Change | Rep 2 Live Cells [Fold Change] (HG3 cells; HG3, 10 nM, day 10): 680.515 Fold Change | Rep 3 Live Cells [Fold Change] (HG3 cells; HG3, 10 nM, day 10): 419.369 Fold Change | Rep 1 Live Cells [Fold Change] (HG3 cells; HG3, 10 nM, day 12): 1691.01 Fold Change | Rep 2 Live Cells [Fold Change] (HG3 cells; HG3, 10 nM, day 12): 2381.8 Fold Change | Rep 3 Live Cells [Fold Change] (HG3 cells; HG3, 10 nM, day 12): 2411.37 Fold Change | Rep 1 Live Cells [Fold Change] (HG3 cells; HG3, 100 nM, day 0): 1 Fold Change | Rep 2 Live Cells [Fold Change] (HG3 cells; HG3, 100 nM, day 0): 1 Fold Change | Rep 3 Live Cells [Fold Change] (HG3 cells; HG3, 100 nM, day 0): 1 Fold Change | Rep 1 Live Cells [Fold Change] (HG3 cells; HG3, 100 nM, day 3): 3.433 Fold Change | Rep 2 Live Cells [Fold Change] (HG3 cells; HG3, 100 nM, day 3): 6.117 Fold Change | Rep 3 Live Cells [Fold Change] (HG3 cells; HG3, 100 nM, day 3): 4.417 Fold Change | Rep 1 Live Cells [Fold Change] (HG3 cells; HG3, 100 nM, day 6): 12.7033 Fold Change | Rep 2 Live Cells [Fold Change] (HG3 cells; HG3, 100 nM, day 6): 20.7661 Fold Change | Rep 3 Live Cells [Fold Change] (HG3 cells; HG3, 100 nM, day 6): 13.7726 Fold Change | Rep 1 Live Cells [Fold Change] (HG3 cells; HG3, 100 nM, day 10): 31.282 Fold Change | Rep 2 Live Cells [Fold Change] (HG3 cells; HG3, 100 nM, day 10): 112.137 Fold Change | Rep 3 Live Cells [Fold Change] (HG3 cells; HG3, 100 nM, day 10): 30.472 Fold Change | Rep 1 Live Cells [Fold Change] (HG3 cells; HG3, 100 nM, day 12): 66.0571 Fold Change | Rep 2 Live Cells [Fold Change] (HG3 cells; HG3, 100 nM, day 12): 233.431 Fold Change | Rep 3 Live Cells [Fold Change] (HG3 cells; HG3, 100 nM, day 12): 63.4325 Fold Change | Rep 1 Live Cells [Fold Change] (HG3 cells; HG3, 1 µM, day 0): 1 Fold Change | Rep 2 Live Cells [Fold Change] (HG3 cells; HG3, 1 µM, day 0): 1 Fold Change | Rep 3 Live Cells [Fold Change] (HG3 cells; HG3, 1 µM, day 0): 1 Fold Change | Rep 1 Live Cells [Fold Change] (HG3 cells; HG3, 1 µM, day 3): 3.05 Fold Change | Rep 2 Live Cells [Fold Change] (HG3 cells; HG3, 1 µM, day 3): 6.15 Fold Change | Rep 3 Live Cells [Fold Change] (HG3 cells; HG3, 1 µM, day 3): 3.933 Fold Change | Rep 1 Live Cells [Fold Change] (HG3 cells; HG3, 1 µM, day 6): 3.162 Fold Change | Rep 2 Live Cells [Fold Change] (HG3 cells; HG3, 1 µM, day 6): 4.9815 Fold Change | Rep 3 Live Cells [Fold Change] (HG3 cells; HG3, 1 µM, day 6): 4.615 Fold Change | Rep 1 Live Cells [Fold Change] (HG3 cells; HG3, 1 µM, day 10): 2.64 Fold Change | Rep 2 Live Cells [Fold Change] (HG3 cells; HG3, 1 µM, day 10): 3.873 Fold Change | Rep 3 Live Cells [Fold Change] (HG3 cells; HG3, 1 µM, day 10): 1.218 Fold Change | Rep 1 Live Cells [Fold Change] (HG3 cells; HG3, 1 µM, day 12): 1.11 Fold Change | Rep 2 Live Cells [Fold Change] (HG3 cells; HG3, 1 µM, day 12): 5.3136 Fold Change | Rep 3 Live Cells [Fold Change] (HG3 cells; HG3, 1 µM, day 12): 0.1619 Fold Change | dose at which growth inhibition begins (HG3 cells; HG3, continuous exposure over 12 days): 100 nM
